Experimental findings from patent US20160138077A1, “MONITORING AND ASSESSING DEACETYLASE ENZYME ACTIVITY” (THE GENERAL HOSPITAL CORPORATION, priority 2013, published 2016) are described below.

One test deals with T1, Sirtuin 1 (Homo sapiens, UniProt Q96EB6).
T1 construct: purchased Cayman Chemicals
T1 sequence (Q96EB6 1-747): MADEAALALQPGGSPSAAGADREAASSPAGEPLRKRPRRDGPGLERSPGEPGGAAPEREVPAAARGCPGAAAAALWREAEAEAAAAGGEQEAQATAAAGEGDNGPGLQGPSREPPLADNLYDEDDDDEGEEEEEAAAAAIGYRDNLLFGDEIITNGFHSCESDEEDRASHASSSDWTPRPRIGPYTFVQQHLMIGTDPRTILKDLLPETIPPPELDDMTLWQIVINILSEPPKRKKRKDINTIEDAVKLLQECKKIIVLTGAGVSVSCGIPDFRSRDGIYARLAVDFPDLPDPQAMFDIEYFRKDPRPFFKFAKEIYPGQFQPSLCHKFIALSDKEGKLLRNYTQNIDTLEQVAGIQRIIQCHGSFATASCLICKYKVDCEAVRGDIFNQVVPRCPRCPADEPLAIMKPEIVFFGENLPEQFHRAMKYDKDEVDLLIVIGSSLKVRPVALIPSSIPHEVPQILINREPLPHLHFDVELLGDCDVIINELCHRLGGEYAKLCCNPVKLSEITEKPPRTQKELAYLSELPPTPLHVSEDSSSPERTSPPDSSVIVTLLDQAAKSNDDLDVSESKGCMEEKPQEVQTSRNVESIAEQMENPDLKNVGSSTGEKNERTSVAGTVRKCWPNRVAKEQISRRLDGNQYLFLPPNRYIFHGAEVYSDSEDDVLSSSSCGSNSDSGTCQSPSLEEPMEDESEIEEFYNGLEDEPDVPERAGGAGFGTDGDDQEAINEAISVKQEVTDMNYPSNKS
In words: LCMS assay of sirtuin enzymatic action on HP-1. Type of test: biochemical. The note with it: Sirtuin 1, −SAHA; 5 μM HP-1, 12 hours at 37° C. As for the experimental part: (§1) The enzymatic cleavage of HP-1 was analyzed by performing LCMS assays with sirtuin 1 and 3 (Cayman Chemicals) and the proteases chymotrypsin (Sigma-Aldrich), cathepsin (EMD Millipore), and pepsin* (Sigma-Aldrich). Solutions containing (i) vehicle with DMSO in HDAC buffer, (ii) 5 μM HP-1 in HDAC buffer, and (iii) 5 μM HP-1 and the enzyme in HDAC buffer were incubated for 12 hours at 37° C. Following incubation, a 20 μL aliquot of supernatant from each sample was analyzed by LCMS. Deacetylation of HP-1 was investigated by screening for the DHP-1 (M+H)^+ ion following positive electrospray ionization. All assay samples were analyzed in triplicate. […]
(§2) HP-1 was not altered by sirtuins 1 and 3 or the proteases chymotrypsin, cathepsin and pepsin, as determined by LCMS. […] For Cathepsin B, the cleavage of the enzyme substrate, z-RR-pNA (Santa Cruz Biotechnology, Dallas, Tex.) was monitored using a Wallac EnVision 2103 Multilabel fluorescence plate reader (PerkinElmer, Waltham, Mass.) with a 405 nm excitation filter, a 406 nm emission filter, and a gain of 150. The cleavage of the pepsin substrate, Ac-Phe-Tyr-OH (Chem-Impex Inc.), was monitored by LCMS at pH 4. […]

Another test deals with T2, Sirtuin 3 (Homo sapiens, UniProt Q9NTG7).
T2 construct: purchased Cayman Chemicals
T2 sequence (Q9NTG7 1-399): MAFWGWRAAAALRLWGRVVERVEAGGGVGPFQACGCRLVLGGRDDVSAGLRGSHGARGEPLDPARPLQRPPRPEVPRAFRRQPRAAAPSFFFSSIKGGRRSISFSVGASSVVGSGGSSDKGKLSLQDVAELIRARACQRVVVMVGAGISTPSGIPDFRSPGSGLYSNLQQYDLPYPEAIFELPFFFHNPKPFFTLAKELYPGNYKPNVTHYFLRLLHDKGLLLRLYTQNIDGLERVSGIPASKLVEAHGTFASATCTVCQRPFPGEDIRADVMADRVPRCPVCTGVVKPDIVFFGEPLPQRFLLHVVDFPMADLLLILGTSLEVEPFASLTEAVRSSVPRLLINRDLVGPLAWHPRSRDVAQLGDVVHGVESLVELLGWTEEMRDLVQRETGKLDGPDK
The test can be described thus: LCMS assay of sirtuin enzymatic action on HP-1. The test is classed as biochemical. The note with it: Sirtuin 3, −SAHA; 5 μM HP-1, 12 hours at 37° C. As for the experimental part:
as §1, §2

With `CC(=O)NC=CCCCCNC(=O)CCCCCNc1ccc([N+](=O)[O-])c2nonc12` [HP-1], the “% HP-1 to DHP-1” value on Sirtuin 1 and at Sirtuin 3 was 0% throughout.
